Measurements published in PMC12775823, “Glucosylceramide regulates depression through activating peroxisome proliferator-activated receptor gamma in dorsal striatum” (Theranostics, 2026).

Columns and labels:
[1] = molecular target: T1, human PPARγ-full length (Homo sapiens, UniProt P37231); assay: Surface plasmon resonance, full-length hPPARγ; assay type: binding; details: SPR, steady-state affinity, 25 °C; read-out: equilibrium dissociation constant (KD) for hPPARγ
T1 construct: human PPARγ-full length (Active Motif, USA); purchased Active Motif
T1 sequence (P37231 1-505): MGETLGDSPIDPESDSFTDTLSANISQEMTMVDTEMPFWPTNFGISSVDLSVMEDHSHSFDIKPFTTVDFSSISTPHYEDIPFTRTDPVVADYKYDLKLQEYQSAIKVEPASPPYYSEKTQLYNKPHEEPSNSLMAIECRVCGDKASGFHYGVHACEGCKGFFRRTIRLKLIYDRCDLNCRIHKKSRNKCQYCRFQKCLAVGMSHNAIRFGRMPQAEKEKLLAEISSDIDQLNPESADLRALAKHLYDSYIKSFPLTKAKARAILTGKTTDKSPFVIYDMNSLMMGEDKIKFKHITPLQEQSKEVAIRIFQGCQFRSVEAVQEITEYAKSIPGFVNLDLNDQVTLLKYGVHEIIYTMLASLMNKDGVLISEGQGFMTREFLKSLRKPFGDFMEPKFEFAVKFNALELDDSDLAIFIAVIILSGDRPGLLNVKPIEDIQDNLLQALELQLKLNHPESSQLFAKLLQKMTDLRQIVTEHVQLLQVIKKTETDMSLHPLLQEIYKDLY
Method: Prepared human PPARγ-LBD and human PPARγ-full length (Active Motif, USA) were immobilized onto a CM5 sensor chip using amine coupling. Briefly, the protein was diluted to 50 μg/mL in immobilization buffer and covalently attached to the CM5 chip via an Amine Coupling Kit (Cytiva, USA), following the manufacturer's instructions. A channel without immobilized protein was used as a blank control. The positive control, pioglitazone, and the test molecule, GlcCer, were both diluted in running buffer (PBS containing 5% (v/v) DMSO, 3 mM EDTA, and 0.05% (v/v) surfactant P20, pH 7.4). Gradient concentrations of GlcCer were injected over both channels at a flow rate of 30 μL/min, with an association time and dissociation time of 85 s each.

[2] = tested on: CRS-induced mice; assay: Behavioral tests (OFT, EPMT, LDT, SPT, FST) in chronic restraint stress mice, intra-dorsal striatal infusion; assay type: in vivo
Method: For intracranial injection, mice were surgically implanted with sterilized guide cannulae in dorsal striatum. […] Mice were intraperitoneally injected with CNO (1 mg/kg/d) before behavioral test.
Chronic restraint stress (CRS). For the CRS protocol, male C57BL/6J mice (8-10 weeks old) were obtained from Charles River Laboratories (Beijing, China). Mice were individually placed into well-ventilated 50 mL conical restraint tube (suitable for mice weighing 20-25 g) with multiple holes for 4 h daily between 10:00 AM and 2:00 PM to minimize circadian rhythm variations. The restraint stress procedure was conducted for 14 consecutive days. Then, all behavioral test were performed between 10:00 AM and 18:00 PM.
(§1) Elevated plus maze test (EPMT).
(§2) Light-dark Transition test (LDT).
(§3) Sucrose preference test (SPT).
(§4) Forced swimming test (FST).

[3] = molecular target: T2, human PPARγ AF1 domain (Homo sapiens, UniProt P37231); assay: Surface plasmon resonance, PPARγ AF1 domain; assay type: binding; details: SPR
T2 sequence (P37231 31-135 limits assumed): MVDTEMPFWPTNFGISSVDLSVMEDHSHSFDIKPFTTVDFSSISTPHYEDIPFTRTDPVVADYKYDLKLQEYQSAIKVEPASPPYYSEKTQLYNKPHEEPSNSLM

[4] = tested on: D2-Pparg^f/f mice; assay: Behavioral tests in D2-Pparg f/f mice after intra-dorsal striatal microinfusion; assay type: in vivo; details: microinfusion of GlcCer
Method: For intracranial injection, mice were surgically implanted with sterilized guide cannulae in dorsal striatum. Intra-dorsal striatal injection of PDMP (100 μM, 1 μL/injection), pioglitazone (100 μM, 1 μL/injection), UNC (10 μM, 1 μL/injection) was performed 30 min before behavioral test. Mice were intraperitoneally injected with CNO (1 mg/kg/d) before behavioral test.
as §1, §2, §3, §4

[5] = CRS mice, pioglitazone 1 μM, GlcCer 200 μM, 1 μL/side, or combination

Glucosylceramide [GlcCer]
Kd [1]: 36 ± 2 nM
time spent in the center area (OFT) ([2]; CRS mice vs vehicle, pioglitazone 1 μM, GlcCer 200 μM, 1 μL/side, or combination): significant increase
stress-induced depression-like behaviors (overall) ([2]; CRS mice, administration of GlcCer, pioglitazone or combined): reverses
immobility duration in the FST [2, 5]: decreased
sucrose preference in the SPT [2, 5]: increased
Kd [3]: 29 ± 3 nM
depression-like behaviors [4]: failed to alleviate
